In publication PMC6270778, “Novel Cinnamic Acid Derivatives as Antioxidant and Anticancer Agents: Design, Synthesis and Modeling Studies” (Molecules, 2014):

Tests used:
[1] = Hydroxyl radicals scavenging activity (Fe3+/ascorbic acid system, competition with DMSO); details: 0.1 mM; no = no action under the used experimental conditions
Experimental: Thus we evaluated our acids for their competition with DMSO for ˙OH radicals was measured, hydroxyl radicals were produced by the Fe^3+/ascorbic acid system and expressed as percent inhibition of formaldehyde formation at 0.1 mM concentration (Table 3).
The hydroxyl radicals were produced by the Fe ^3+/ascorbic acid system. EDTA (0.1 mM), Fe ^3+ (167 μM), DMSO (33 mM) in phosphate buffer (50 mM, pH 7.4), the tested compounds (0.1 mM) and ascorbic acid (10 mM) were mixed in test tubes. The solutions were incubated at 37 °C for 30 min. The reaction was stopped by CCl3COOH (17% w/v) (Table 4) and the % scavenging activity of the tested compounds for hydroxyl radicals was given.

[2] = ABTS+ decolorization assay; details: 0.1 mM
Experimental: The ABTS^•+ is derived from the oxidation of ABTS by potassium persulfate. It is a decolorization assay. The addition of electron-donating antioxidants leads to ABTS^•+ reduction. The chemistry taking place involves the direct generation of the ABTS^•+ with no involvement of an intermediary radical.
In this assay, ethanol is used for the dilution of the ABTS^+• solution. ABTS is dissolved in water to a 7 mM and reacts with 2.45 mM […] to produce the ABTS radical cation (ABTS^+•) by allowing the mixture to stand in the dark at room temperature for 12–16 h before use. Ten μL of diluted ABTS^+• solution (734 nm) is added to 10 μL of antioxidant compounds or Trolox standards (final concentration 0–0.1 mM) in ethanol and the absorbance is measured at 30 °C exactly 1 min after the initial mixing (Table 3).

[3] = Inhibition of linoleic acid peroxidation (AAPH); details: 0.1 mM
Excerpt: For the in vitro study of the free radical production, azo compounds generating free radicals through spontaneous thermal decomposition are used. The water soluble 2,2'-azobis(2-amidinopropane) hydrochloride (AAPH) is recommended as appropriate for measuring radical-scavenging activity in vitro. The activity of the peroxyl radicals produced by the action of AAPH greatly resembles to cellular activities such as lipid peroxidation. The phenyl substituted acids presented remarkable activity at 0.1 mM concentration (84%–92%) compared to the non-substituted derivatives (20%–63%).
For initiating the free radical, 2,2'-azobis(2-amidinopropane) dihydrochloride (AAPH) is used. The final solution in the UV cuvette consisted of ten microliters of the 16 mM linoleate sodium dispersion 0.93 mL of 0.05 M phosphate buffer, pH 7.4, thermostatted at 37 °C. 50 μL of 40 mM AAPH solution was added as a free radical initiator at 37 °C under air and 10 μL of the tested compounds. The oxidation of linoleic acid sodium salt results a conjugated diene hydroperoxide. The reaction is monitored at 234 nm (Table 3).

[4] = Superoxide radical scavenging activity (non-enzymatic, PMS/NADH, NBT method); details: 0.1 mM; no = no action under the used experimental conditions
Experimental: The superoxide anion radical (O2^−·) is less toxic than the hydroxyl radical, but still being one of the most known toxic ROS. Two different experimental assays are followed for the determination of superoxide anion radical scavenging activity: (i) one involves an enzymatic production of superoxide anions and (ii) the other is supported by a non- enzymatic procedure. Herein the test is performed at 0.1 mM concentration, generating superoxide anion radicals by a non-enzymatically assay (Table 3). Compound 1i presented the highest activity, followed by compound 1ii (75% and 50%, respectively).
Superoxide radicals were produced non-enzymatically by mixing PMS, NADH and air–oxygen. The nitroblue tetrazolium method was used for the estimation of the produced radicals. The reaction mixture containing compounds (0.1 mM), 3 μM PMS, 78 μM NADH, and 25 μM NBT in 19 μM phosphate buffer pH 7.4 was incubated for 2 min at room temperature. The acrylic acids were preincubated for 2 min before adding NADH (Table 4) and the absorption was recorded at 560 nm.

[5] = Interaction with the stable radical DPPH
Experimental: The novel acids were studied for the antioxidant activity by the use of the sTable 2,2-diphenyl-1-picrylhydrazyl radical (DPPH) at concentrations 0.05 and 0.1 mM after 20 and 60 min (Table 2). In the DPPH assay, the dominant chemical reaction involved is the reduction of the DPPH radical by single electron transfer SET from the antioxidant. Phenolic compounds eg. […] The compounds presented reducing abilities which ranged nearly 29% (4ii), small differences were found among the compounds with time and concentration. […] Due to steric reasons the interaction of DPPH with the tested compounds is low.
To a solution of DPPH in absolute ethanol the appropriate volume of the compounds (0.05 and 0.1 mM final concentrations) dissolved in DMSO was added. The absorbance was recorded at 517 nm after 20 and 60 min at room temperature (Table 3).

Which “HO (%) (±SD)” value [1] does the source give for Cc1c(C)c2c(c(C)c1O)CCC(C)(C(=O)O)O2 (stereo not drawn) [Trolox, reference compound] here?
The value was 73 ± 1.0%.

What about the “ABTS+· (%) (±SD)” value [2] of the same molecule?
Its value is 88 ± 1.7%.

What about the “AAPH (%) (±SD), inhibition of linoleic acid peroxidation” value [3] of the same molecule?
Its value is 63 ± 1.3%.

With O=C(O)/C=C/c1ccc(O)c(O)c1 [Caffeic acid, caffeic acid, reference compound] as the molecule, how does the “O2−· (%) (±SD)” value [4] read?
The value was 46 ± 0.5%.

For O=C1O[C@H]([C@@H](O)CO)C(O)=C1O [Ascorbic Acid, reference compound], which “ABTS+· (%) (±SD)” value [2] is on record?
The value was 96 ± 0.9%.

Which “RA % (±SD), DPPH” value ([5]; 0.05 mM, 20 min) does the source give for CC(Cc1ccc(O)c(O)c1)C(C)Cc1ccc(O)c(O)c1 (stereo not drawn) [NDGA, nordihydroguaretic acid, reference compound] here?
The value was 85 ± 1.6%.

What about the “RA % (±SD), DPPH” value ([5]; 0.05 mM, 60 min) of the same molecule?
The value was 83 ± 1.1%.

What about the “RA % (±SD), DPPH” value ([5]; 0.1 mM, 20 min) of the same molecule?
Its value is 81 ± 0.8%.

And the “RA % (±SD), DPPH” value ([5]; 0.1 mM, 60 min)?
The value was 83 ± 0.7%.
